Test results from paper PMC12406195, “Understanding the Modes of Action of β‑Ketoiminato Iridium(III) Complexes in Cancer Cells” (Inorganic Chemistry, 2025).

How the values were obtained:
MDA-MB-231 cells = test: Reactive oxygen species (H2DCFDA fluorescence); assay type: cell-based, human; settings: MDA-MB-231, 100 μM, 4 h, compared to nontreated control
Experimental: To measure the degree of ROS produced in MDA-MB-231 cells, 2′,7′-dichlorodihydrofluorescein diacetate (H2DCFDA), a cell-permeable fluorescent dye, was used. H2DCFDA is deacetylated by esterases and consecutively oxidized by intracellular ROS into a fluorescent molecule, dichlorofluorescein (DCF).
MDA-MB-231 cells at 4000 cells/well were seeded into a black clear -bottom 96-well plate using phenol-red free complete RMPI medium, and incubated for 48 h. The cells were treated with 100 µM of 1 for 4 h alongside an untreated sample (control). 2′,7′ -dichlorodihydrofluorescein diacetate (H 2DCFDA, 20 μM final concentration in PBS ) was added for 45 min. […] Fluorescence images were obtained using a Zeiss Observer 7 inverted microscope at excitation at 488 nm and emission at 509 […]
Plasmid DNA (200 ng, pBOS -H2B-GFP, BD Biosciences) was incubated overnight at room temperature with 1 or CDDP at concentrations between 100 and 400 μM in double -distilled H2O (20 μL total volume). […] The experiment was conducted in two biological replicates, and the band intensities were quantified and analyzed using ImageJ software. […]
MDA-MB-231 cells were seeded in 6-well plates at a density of 1.2 × 10⁵ cells/well. […] The samples were then placed on microscope slides, covered with a coverslip, and their morphology was examined using a fluorescence microscope (Eclipse TS100, Nikon). […]

ARPE-19 cells = test: Chemosensitivity (MTT cell viability) assay, noncancerous ARPE-19; assay type: cell-based, human; settings: ARPE-19 noncancerous, 96 h, n = 9
Experimental: The cytotoxicity of the compounds against the cancer cell lines was also compared to the noncancerous retinal epithelial cell line, ARPE-19, to determine the possibility of cancer cell selectivity. […]
All cytotoxicity assays were conducted using human cell lines: breast adenocarcinomas (MDA-MB-231 and MCF-7), pancreatic carcinoma (MIA PaCa-2) and non-cancerous epithelial retinal (ARPE-19) cell lines. All cell lines were routinely maintained as monolayer cultures in appropriate complete media:
MCF-7, MIA PaCa-2 and ARPE-19 in high glucose DMEM and MDA-MB-231 in RPMI-1640, and both media were supplemented with 10% FBS, 1 mM sodium pyruvate, 2 mM L-glutamine, and 1% pen-strep. All cells were initially grown in T-25 or T-75 flasks at 37 °C and 5% CO2. Before chemosensitivity studies, cell monolayers were passaged using trypsin-EDTA (0.05%) and diluted to a concentration of 1 x 10^4 cells/mL (or 4 x 10^4 cells mL for 24 h assays). All assays were conducted in 96-well plates, in which 100 µL of the cell suspension was added for 24 h at 37 °C and 5% CO2, and then 100 µL of compound/medium dilutions for a further 96 h (or 24 h). All compound stocks were made using sterile DMSO at 100 mM before dilution, and a maximum of 0.1% DMSO was used in each assay. After incubation, 3-(4,5-dimethylthiazol-2-yl)-2,5-diphenyltetrazolium bromide (20 µL, 5 mg/mL in PBS) was added to each well and incubated for 3 h at 37°C and 5% CO2. All solutions were then aspirated, DMSO (150 µL) added to each well, gently mixed, and the absorbance was measured at 540 nm using a ClarioStar spectrophotometer microplate reader. Results were plotted on a logarithmic scale, and the half maximal inhibitory concentration (IC50) was determined from a triplicate of triplicate repeats (n = 9) and reported as an IC 50 ± Standard Deviation (SD).

In the case of “[Cp*Ir(C16H14NO)(PTA)](PF6) [Compound 1]”, the “ROS generation (DCF fluorescence)” value (MDA-MB-231 cells) is reported as “increase in fluorescence” and the IC50 (ARPE-19 cells) is reported as 10.4 ± 0.7 µM.
